Source: ChEMBL document CHEMBL3785063 (Eur J Clin Pharmacol, 1981)

Tests used:
[1] = Tmax in arrhythmia patient (7 patients) at 400 mg, iv after 4 days 400 mg, po dose administered followed continuous oral therapy with 200 mg, tid by HPLC analysis; conditions: human, in vivo
[2] = Drug excretion in arrhythmia patient (7 patients) assessed as unchanged compound level in urine at 400 mg, iv after 4 days 400 mg, po dose administered followed continuous oral therapy with 200 mg, tid measured 2 hrs after iv drug challenge by HPLC analysis; conditions: human
[3] = Drug uptake in arrhythmia patient (7 patients) serum at 400 mg, iv after 4 days 400 mg, po dose administered followed continuous oral therapy with 200 mg, tid measured 2 hrs after iv drug challenge by HPLC analysis; conditions: human
[4] = Drug concentration in arrhythmia patient (7 patients) serum at 400 mg, iv after 4 days 400 mg, po dose administered followed continuous oral therapy with 200 mg, tid measured after 24 hrs by HPLC analysis; conditions: human
[5] = Drug concentration in arrhythmia patient (7 patients) serum at 400 mg, iv after 4 days 400 mg, po dose administered followed continuous oral therapy with 200 mg, tid measured after 48 hrs by HPLC analysis; conditions: human
[6] = Drug concentration in arrhythmia patient (7 patients) serum at 400 mg, iv after 4 days 400 mg, po dose administered followed continuous oral therapy with 200 mg, tid measured after 1 week by HPLC analysis; conditions: human
[7] = Drug concentration in arrhythmia patient (7 patients) serum at 400 mg, iv after 4 days 400 mg, po dose administered followed continuous oral therapy with 200 mg, tid measured after 1 month by HPLC analysis; conditions: human

## CCCCc1oc2ccccc2c1C(=O)c1cc(I)c(OCCN(CC)CC)c(I)c1 [AMIODARONE]
[1]
  Tmax at 96 h: 7.3 h
[2]
  concentration at 2 h: 100 ng/mL
[3]
  concentration at 2 h: 2000 ng/mL
[4]
  concentration at 24 h: 610 ng/mL
[5]
  concentration at 48 h: 760 ng/mL
[6]
  concentration at 1 week: 1180 ng/mL
[7]
  concentration at 96 h: 1560 ng/mL
